pIC50: −log10 of the molar value.

In one experiment the test system is pERK in NCI-H358 cells. The experiment is described as follows: Cell-based pERK HTRF assay (pERK inhibition in H358 cells). The conditions noted are these: Homo sapiens, NCI-H358, 0.5 h, pERK inhibition IC50, NCI-H358 cells, 30 min incubation; read-out: PERK in H358 cell. (In general: TR-FRET usually uses a lanthanide donor and a delayed reading to cut background.)
For `C=CC(=O)N1CC[C@@H](N(CC)c2nc(OC[C@@]34CCCN3C[C@H](F)C4)nc3cc(-c4ccc(F)c5sc(N)c(C#N)c45)c(F)cc23)[C@H]1COC` [Compound 437], the pIC50 is 6.00 to 7.00. In the case of `C=CC(=O)N1CCC(N(C)c2nc(OC[C@@H]3CC4(CC4)CN3C)nc3c(F)c(-c4ccc(F)c5sc(N)c(C#N)c45)c(C(F)(F)F)cc23)[C@H]1C` (stereo partly drawn) [Compound 409], the pIC50 was more than 7.00. The same measure, in the same setting: to `C=CC(=O)N1CCC(N(C)c2nc(OC[C@@]34CCCN3C[C@H](F)C4)nc3c(F)c(-c4ccc(F)c5sc(N)c(C#N)c45)ccc23)[C@H]1COC` (stereo partly drawn) [Compound 402] belongs more than 7.00; to `C=CC(=O)N1CC[C@@H](N(CC)c2nc(OC[C@@]34CCCN3C[C@H](F)C4)nc3cc(-c4ccc(F)c5sc(N)c(C#N)c45)c(C(F)(F)F)cc23)C1` [Compound 352], more than 7.00. The same measure, in the same setting: then `CN1CCC[C@H]1COc1nc(NC2CCN(C#N)CC2)c2cc(Cl)c(-c3ccc(F)c4sc(N)nc34)c(F)c2n1` [Compound 55], with less than 6.00; and `C=CC(=O)N1CC(N(C)c2nc(OCC34CCCN3CC(F)(F)C4)nc3c(F)c(-c4ccc(F)c5sc(N)nc45)c(C(F)(F)F)cc23)C1` (stereo not drawn) [Compound 187], with 6.00 to 7.00. The same measure, in the same setting: to `C=CC(=O)N1CCN(c2nc(OC[C@]34CCCN3C[C@H](F)C4)nc3c(F)c(-c4ccc(F)c5sc(N)nc45)c(C(F)(F)F)cc23)[C@H](C)C1` [Compound 196] belongs more than 7.00.

As for `C=CC(=O)N1C[C@@H](F)[C@@H](N(C)c2nc(OC[C@@]34CCCN3C[C@H](F)C4)nc3c(C#N)c(-c4ccc(F)c5sc(N)c(C#N)c45)c(Cl)cc23)C1` [Compound 379], the pIC50 is more than 7.00.

As for `C=CC(=O)N1CC[C@@H](N(C)c2nc(OC[C@@]34CCCN3C[C@H](F)C4)nc3cc(-c4ccc(F)c5sc(N)c(C#N)c45)c(F)cc23)[C@H]1COC` [Compound 391], the pIC50 is more than 7.00. On the same count and under the same terms, to `C=CC(=O)N1CC[C@H](N(C)c2nc(OC[C@@]34CCCN3C[C@H](F)C4)nc3c(F)c(-c4ccc(F)c5sc(N)c(C#N)c45)c(C(F)(F)F)cc23)[C@@H]1C` (single isomer, unassigned) [Compound 472] belongs more than 7.00; to `C=C(F)C(=O)N1CCN(c2nc(OC[C@]34CCCN3C[C@H](F)C4)nc3c(F)c(-c4ccc(F)c5sc(N)nc45)c(C(F)(F)F)cc23)[C@H](C)C1` [Compound 199], 6.00 to 7.00; to `C=CC(=O)N1C[C@H](C)N(c2nc(OC[C@@H]3C[C@@H](OC)CN3C)nc3c(F)c(-c4ccc(F)c5sc(N)c(C#N)c45)c(C(F)(F)F)cc23)C[C@H]1C` [Compound 408], more than 7.00. As for `C=CC(=O)N1C[C@@H](F)[C@@H](N(CC)c2nc(OC[C@@]34CCCN3C[C@H](F)C4)nc3cc(-c4ccc(F)c5sc(N)c(C#N)c45)c(C(F)(F)F)cc23)C1` [Compound 375], the pIC50 was more than 7.00. Still for that read-out and setting: then `C=CC(=O)N1C[C@H](C)N(c2nc(OC)nc3c(F)c(-c4ccc(F)c5sc(N)c(C#N)c45)c(C(F)(F)F)cc23)C[C@H]1C` [Compound 385], with more than 7.00. Same read-out and setting: then `C=CC(=O)N1CCC(N(CC)c2nc(OC[C@@H]3CCCN3C)nc3c(F)c(-c4ccc(F)c5sc(N)c(C#N)c45)c(C(F)(F)F)cc23)[C@H]1C` (stereo partly drawn) [Compound 396], with more than 7.00; and `C=CC(=O)N1CCC(N(C)c2nc(OC)nc3c(F)c(-c4ccc(F)c5sc(N)c(C#N)c45)ccc23)[C@H]1C` (stereo partly drawn) [Compound 461], with less than 6.00.

As for `C=CC(=O)N1CCN(c2ncnc3c(F)c(-c4ccc(F)c5sc(N)nc45)c(Cl)c(OC)c23)CC1` [Compound 82], the pIC50 was more than 7.00. Still for that read-out and setting: then `CC#CC(=O)N1CCN(c2nc(OCC34CCCN3CC(C)(C)C4)nc3c(F)c(-c4ccc(F)c5sc(N)nc45)c(C(F)(F)F)cc23)CC1` (stereo not drawn) [Compound 170], with 6.00 to 7.00. The same measure, in the same setting: to `C=CC(=O)N1CC[C@@H](N(C)c2nc(OC[C@@]34CCCN3C[C@H](F)C4)nc3c(F)c(-c4ccc(F)c5sc(N)c(C#N)c45)ccc23)[C@H]1C` [Compound 358, 4-(4-(((2R,3R)-1-acryloyl-2-methylpyrrolidin-3-yl)(methyl)amino)-8-fluoro-2-(((2R,7aS)-2-fluorotetrahydro-1H-pyrrolizin-7a(5H)-yl)methoxy)quinazolin-7-yl)-2-amino-7-fluorobenzo[b]thiophene-3-carbonitrile] belongs more than 7.00; to `C=CC(=O)N1CCC(N(CC)c2nc(OC[C@@H]3C[C@@H](F)CN3C)nc3c(F)c(-c4ccc(F)c5sc(N)c(C#N)c45)c(C(F)(F)F)cc23)[C@H]1COC` (stereo partly drawn) [Compound 453], more than 7.00; to `C=CC(=O)N1CC[C@H](N(C)c2nc(OC[C@@]34CCCN3C[C@H](F)C4)nc3c(F)c(-c4ccc(F)c5sc(N)nc45)c(Cl)cc23)C1` [Compound 185], 6.00 to 7.00. Same read-out and setting: then `C=CC(=O)N1C[C@@H](F)[C@@H](N(C)c2nc(OC[C@@]34CCCN3C[C@H](F)C4)nc3cc(-c4ccc(F)c5sc(N)nc45)c(C(F)(F)F)cc23)C1` [Compound 317], with more than 7.00; and `C=CC(=O)N1CCC(N(C)c2nc(OC[C@@H]3CCCN3C)nc3cc(-c4ccc(F)c5sc(N)c(C#N)c45)c(F)cc23)[C@H]1C` (stereo partly drawn) [Compound 417], with 6.00 to 7.00. With `C=CC(=O)N1CCC(N(C)c2nc(OC[C@@H]3C[C@@H](F)CN3C)nc3c(F)c(-c4ccc(F)c5sc(N)c(C#N)c45)c(C(F)(F)F)cc23)[C@H]1C` (stereo partly drawn) [Compound 399], the pIC50 is more than 7.00. Still for that read-out and setting: then `C=CC(=O)N1CC[C@@H](N(CC)c2ncnc3c(F)c(-c4ccc(F)c5sc(N)nc45)c(C(F)(F)F)cc23)C1` [Compound 248], with 6.00 to 7.00; and `C=CC(=O)N1C[C@H](C)N(c2nc(N3CC(N4CC5(CC5)C4)C3)nc3c(F)c(-c4ccc(F)c5sc(N)c(C#N)c45)c(C(F)(F)F)cc23)C[C@H]1C` [Compound 338, 4-(2-(3-(5-azaspiro[2.3]hexan-5-yl)azetidin-1-yl)-4-((2S,5R)-4-acryloyl-2,5-dimethylpiperazin-1-yl)-8-fluoro-6-(trifluoromethyl)quinazolin-7-yl)-2-amino-7-fluorobenzo[b]thiophene-3-carbonitrile], with more than 7.00. The same measure, in the same setting: to `C=CC(=O)N1C[C@H](C)N(c2nc(OC[C@@]34CCCN3C[C@H](F)C4)nc3c(F)c(-c4ccc(F)c5sc(N)nc45)c(OC(F)(F)F)cc23)C[C@H]1C` [Compound 235, 1-((2R,5S)-4-(7-(2-amino-7-fluorobenzo[d]thiazol-4-yl)-8-fluoro-2-(((2R,7aS)-2-fluorotetrahydro-1H-pyrrolizin-7a(5H)-yl)methoxy)-6-(trifluoromethoxy)quinazolin-4-yl)-2,5-dimethylpiperazin-1-yl)prop-2-en-1-one] belongs more than 7.00. The same measure, in the same setting: then `C=CC(=O)N1C[C@@H](F)[C@@H](N(C)c2nc(OC[C@@]34CCCN3C[C@H](F)C4)nc3c(F)c(-c4ccc(F)c5sc(N)nc45)c(C(F)(F)F)cc23)C1` [Compound 279], with more than 7.00. Consider `C=CC(=O)N1C[C@@H](F)[C@@H](N(C)c2nc(OC[C@@H]3C[C@@H](F)CN3C)nc3cc(-c4ccc(F)c5sc(N)c(C#N)c45)c(C(F)(F)F)cc23)C1` [Compound 356], for which the pIC50 is more than 7.00. The same measure, in the same setting: to `C=CC(=O)N1CCC(N(C)c2nc(OC[C@@]34CCCN3C[C@H](F)C4)nc3c(C#N)c(-c4ccc(F)c5sc(N)c(C#N)c45)ccc23)[C@H]1C` (stereo partly drawn) [Compound 404] belongs 6.00 to 7.00; to `C=CC(=O)N1CC[C@@H](N(C)c2nc(OC[C@@H]3CC4(CC4)CN3C)nc3c(F)c(-c4ccc(F)c5sc(N)nc45)c(C(F)(F)F)cc23)C1` (atropisomer, axis not shown) [Compound 255], more than 7.00; to `C=CC(=O)N1CC[C@@H](N(C)c2ncnc3c(F)c(-c4ccc(F)c5sc(N)c(C#N)c45)c(C(F)(F)F)cc23)C1` [Compound 383, 4-(4-(((R)-1-acryloylpyrrolidin-3-yl)(methyl)amino)-8-fluoro-6-(trifluoromethyl)quinazolin-7-yl)-2-amino-7-fluorobenzo[b]thiophene-3-carbonitrile], more than 7.00.

On to `C=CC(=O)N1CC[C@@H](N(C)c2ncnc3c(F)c(-c4ccc(F)c5sc(N)nc45)c(C(F)(F)F)cc23)C1` [Compound 225], for which the pIC50 is 6.00 to 7.00. On the same count and under the same terms, to `C=CC(=O)N1C[C@H](C)N(c2nc(OCC3(CN4CC[C@@H](F)C4)CC3)nc3c(F)c(-c4ccc(F)c5sc(N)nc45)c(C(F)(F)F)cc23)C[C@H]1C` [Compound 286] belongs more than 7.00.

Consider `C=C(F)C(=O)N1CCN(c2nc(OC[C@@]34CCCN3C[C@H](F)C4)nc3c(F)c(-c4ccc(F)c5sc(N)nc45)c(C(F)(F)F)cc23)C[C@H]1C` [Compound 208], for which the pIC50 is 6.00 to 7.00. The same measure, in the same setting: to `C=CC(=O)N1CC[C@@H]2[C@H]1CN2c1nc(OCC23CCCN2CCC3)nc2c(F)c(-c3ccc(F)c4sc(N)nc34)c(-c3ccoc3)cc12` [Compound 121] belongs less than 6.00; to `C=CC(=O)N1CCC(N(C)c2nc(OC[C@@H]3CCCN3C)nc3c(F)c(-c4ccc(F)c5sc(N)c(C#N)c45)ccc23)[C@H]1C` (stereo partly drawn) [Compound 420], more than 7.00. The same measure, in the same setting: then `C=CC(=O)N1CC(N(C)c2nc(OC[C@@]34CCCN3C[C@H](F)C4)nc3c(F)c(-c4ccc(F)c5sc(N)nc45)c(C(F)(F)F)cc23)C1` [Compound 223], with more than 7.00.

Consider `C=CC(=O)N1C[C@H](F)[C@@H](N(C)c2nc(OC[C@@]34CCCN3C[C@H](F)C4)nc3cc(-c4ccc(F)c5sc(N)c(C#N)c45)c(C(F)(F)F)cc23)C1` [Compound 320], for which the pIC50 is more than 7.00.

Staying with this experiment, now noted: pERK inhibition IC50, NCI-H358 cells, 30 min incubation; read-out: PERK in H358 cell.
Turning to `C=CC(=O)N1CCC[C@@H](N(C)c2nc(OC[C@@]34CCCN3C[C@H](F)C4)nc3c(F)c(-c4ccc(F)c5sc(N)nc45)c(Cl)cc23)C1` (atropisomer, axis not shown) [Compound 242], the pIC50 is 6.00 to 7.00. Still for that read-out and setting: then `C=CC(=O)N1CC[C@@H](N(C)c2nc(OC[C@@]34CCCN3C[C@H](F)C4)nc3c(F)c(-c4ccc(F)c5sc(N)nc45)c(C(F)(F)F)cc23)C1` (single isomer, unassigned) [Compound 240], with 6.00 to 7.00; and `C=CC(=O)N1C[C@H](N(C)c2ncnc3c(F)c(-c4ccc(F)c5sc(N)nc45)c(C(F)(F)F)cc23)C[C@H]1C` (atropisomer, axis not shown) [Compound 251], with less than 6.00.

For the origin of these results see patent publication US12528818B2, “Compositions and methods for inhibition of RAS” (Leidos Biomedical Research, Inc., priority 2021, dated 2026).
